Experiments:
[1] = Vitamin E acetate in rabbit aqueous humor samples; type: in vivo; details: days 1, 4, 7, 12; quantification limit 1.0 ng/mL
[2] = Vitamin E acetate in rabbit tear samples after single 50 μL instillation; type: in vivo
Experimental: Subsequently, tear samples were collected using filter paper strips, and the vitamin E acetate contained in the paper strips extracted using methanol. The amount of vitamin E acetate in the methanol extracts was analyzed using LC/MS/MS by known methods.

- Vitamin E acetate in aqueous humor samples [1]: No detectable
- Time vitamin E acetate present in tears of rabbit eyes [2]: at least 12 days
- concentration at 1 day ([2]; rabbit, tears, topical, Day 1): 5.25 µg/mL
- concentration at 4 day ([2]; rabbit, tears, topical, Day 4): 0.114 µg/mL
- concentration at 7 day ([2]; rabbit, tears, topical, Day 7): 0.0986 µg/mL
- concentration at 12 day ([2]; rabbit, tears, topical, Day 12): 0.0274 µg/mL
Structure (SMILES): CC(=O)Oc1c(C)c(C)c2c(c1C)CC[C@@](C)(CCC[C@H](C)CCC[C@H](C)CCCC(C)C)O2 [Vitamin E acetate, [(2R)-2,5,7,8-tetramethyl-2-[(4R,8R)-4,8,12-trimethyltridecyl]chroman-6-yl] acetate]
